Counter-ions that a name gives are not always drawn.
Assay: Thin layer chromatography of bile (metabolism) in rats
Type: in vivo
Details: rat bile, i.v.
Experimental: Lesser concentrations were found in the other tissues. Excretion of the two compounds were found only in bile with no compound detected in urine. In bile, TFA-IOP reached a maximum concentration of […] with the recovery of 40% of the injection dose during a 90 minute time period (see FIG. 6).

## CCC(Cc1c(I)cc(I)c(NC(=O)C(F)(F)F)c1I)C(=O)O (centres unmarked) [TFA-IOP, N-trifluoroacetyl-iopanoic acid]
  metabolism, TLC of bile: a vast majority of the injected TFA-IOP was metabolized to a single metabolite
TLC
  nonmetabolized compound in bile: No nonmetabolized compound was found
